In ChEMBL document CHEMBL5291721, “A preclinical secondary pharmacology resource illuminates target-adverse drug reaction associations of marketed drugs” (Nat Commun, 2023):

Key:
[1] = target: Voltage-dependent L-type calcium channel subunit alpha-1C (Homo sapiens, UniProt Q13936); assay type: functional, cell-based
Glucocorticoid receptor = target: T1, Glucocorticoid receptor (Homo sapiens, UniProt P04150); assay type: functional
T1 sequence (P04150 whole entry): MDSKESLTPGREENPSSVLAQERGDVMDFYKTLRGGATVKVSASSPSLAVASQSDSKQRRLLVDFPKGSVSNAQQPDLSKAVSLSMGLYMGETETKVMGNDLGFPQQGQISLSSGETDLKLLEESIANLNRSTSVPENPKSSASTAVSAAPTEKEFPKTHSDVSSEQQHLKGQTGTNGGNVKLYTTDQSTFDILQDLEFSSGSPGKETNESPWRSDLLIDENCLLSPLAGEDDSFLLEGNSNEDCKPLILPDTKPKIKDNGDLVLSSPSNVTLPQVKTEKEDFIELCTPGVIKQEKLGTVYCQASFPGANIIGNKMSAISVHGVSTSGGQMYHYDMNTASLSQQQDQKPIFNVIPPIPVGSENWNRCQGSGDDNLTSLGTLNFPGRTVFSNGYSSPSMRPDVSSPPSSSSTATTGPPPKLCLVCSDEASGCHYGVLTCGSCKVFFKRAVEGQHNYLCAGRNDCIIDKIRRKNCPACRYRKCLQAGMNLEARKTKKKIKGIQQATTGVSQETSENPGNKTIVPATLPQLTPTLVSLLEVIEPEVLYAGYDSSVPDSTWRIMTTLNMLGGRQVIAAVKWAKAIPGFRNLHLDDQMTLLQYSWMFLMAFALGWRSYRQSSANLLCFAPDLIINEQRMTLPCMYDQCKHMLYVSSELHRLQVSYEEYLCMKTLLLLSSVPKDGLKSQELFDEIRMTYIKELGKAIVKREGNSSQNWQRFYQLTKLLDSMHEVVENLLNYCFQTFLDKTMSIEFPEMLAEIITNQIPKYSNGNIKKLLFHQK

[2] = target: Synaptic vesicular amine transporter (Rattus norvegicus, UniProt Q01827); assay type: functional
Substance-K receptor = target: T2, Substance-K receptor (Homo sapiens, UniProt P21452)
T2 sequence (P21452 whole entry): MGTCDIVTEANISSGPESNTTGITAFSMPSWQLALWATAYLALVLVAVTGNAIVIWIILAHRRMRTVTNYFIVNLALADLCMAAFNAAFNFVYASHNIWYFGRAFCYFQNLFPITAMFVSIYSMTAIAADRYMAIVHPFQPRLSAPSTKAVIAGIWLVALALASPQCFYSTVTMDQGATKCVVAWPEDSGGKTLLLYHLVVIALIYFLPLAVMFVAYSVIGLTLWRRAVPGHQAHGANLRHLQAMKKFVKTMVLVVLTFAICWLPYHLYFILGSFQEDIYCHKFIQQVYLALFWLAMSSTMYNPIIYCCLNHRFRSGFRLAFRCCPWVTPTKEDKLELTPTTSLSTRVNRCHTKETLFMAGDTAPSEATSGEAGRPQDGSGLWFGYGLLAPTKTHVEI

Thromboxane A2 receptor = target: T3, Thromboxane A2 receptor (Homo sapiens, UniProt P21731); assay type: functional, cell-based
T3 sequence (P21731 whole entry): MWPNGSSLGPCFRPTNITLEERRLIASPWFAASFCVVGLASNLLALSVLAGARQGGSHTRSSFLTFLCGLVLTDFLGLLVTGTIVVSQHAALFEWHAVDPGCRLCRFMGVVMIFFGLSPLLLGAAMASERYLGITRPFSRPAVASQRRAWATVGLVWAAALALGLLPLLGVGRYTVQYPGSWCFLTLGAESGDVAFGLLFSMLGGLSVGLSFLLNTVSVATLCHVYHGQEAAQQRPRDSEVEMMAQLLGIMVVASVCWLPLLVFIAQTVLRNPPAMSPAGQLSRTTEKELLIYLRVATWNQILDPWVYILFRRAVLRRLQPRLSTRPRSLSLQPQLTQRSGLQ

[3] = target: 5-hydroxytryptamine receptor 2B (Homo sapiens, UniProt P41595)
[4] = target: T4, Type-2 angiotensin II receptor (Homo sapiens, UniProt P50052); assay type: functional
T4 sequence (P50052 whole entry): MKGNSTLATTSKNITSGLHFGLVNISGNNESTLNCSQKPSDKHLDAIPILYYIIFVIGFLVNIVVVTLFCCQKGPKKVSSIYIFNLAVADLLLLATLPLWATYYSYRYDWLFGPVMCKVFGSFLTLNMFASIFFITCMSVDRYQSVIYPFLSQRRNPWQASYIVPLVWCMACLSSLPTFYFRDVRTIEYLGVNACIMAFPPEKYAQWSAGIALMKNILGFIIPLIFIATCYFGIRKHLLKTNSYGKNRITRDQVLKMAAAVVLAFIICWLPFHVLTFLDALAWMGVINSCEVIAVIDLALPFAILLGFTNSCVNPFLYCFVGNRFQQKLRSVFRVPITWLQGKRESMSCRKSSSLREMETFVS

[5] = target: T5, Retinoic acid receptor beta (Homo sapiens, UniProt P10826); assay type: functional, cell-based
T5 sequence (P10826 whole entry): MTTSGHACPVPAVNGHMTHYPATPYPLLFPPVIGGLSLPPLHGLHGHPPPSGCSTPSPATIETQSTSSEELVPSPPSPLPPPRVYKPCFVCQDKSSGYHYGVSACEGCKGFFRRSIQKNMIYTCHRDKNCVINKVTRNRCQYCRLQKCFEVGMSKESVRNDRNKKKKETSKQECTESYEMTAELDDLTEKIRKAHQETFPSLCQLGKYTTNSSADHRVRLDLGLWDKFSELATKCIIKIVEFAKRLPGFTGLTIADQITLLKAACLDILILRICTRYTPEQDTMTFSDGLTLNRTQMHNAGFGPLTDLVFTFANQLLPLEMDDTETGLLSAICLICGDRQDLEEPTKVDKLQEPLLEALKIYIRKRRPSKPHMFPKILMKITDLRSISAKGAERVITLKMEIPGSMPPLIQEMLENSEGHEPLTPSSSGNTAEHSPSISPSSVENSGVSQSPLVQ
Note: assay procedure not described here.

Synaptic vesicular amine transporter, sequence (Q01827 whole entry): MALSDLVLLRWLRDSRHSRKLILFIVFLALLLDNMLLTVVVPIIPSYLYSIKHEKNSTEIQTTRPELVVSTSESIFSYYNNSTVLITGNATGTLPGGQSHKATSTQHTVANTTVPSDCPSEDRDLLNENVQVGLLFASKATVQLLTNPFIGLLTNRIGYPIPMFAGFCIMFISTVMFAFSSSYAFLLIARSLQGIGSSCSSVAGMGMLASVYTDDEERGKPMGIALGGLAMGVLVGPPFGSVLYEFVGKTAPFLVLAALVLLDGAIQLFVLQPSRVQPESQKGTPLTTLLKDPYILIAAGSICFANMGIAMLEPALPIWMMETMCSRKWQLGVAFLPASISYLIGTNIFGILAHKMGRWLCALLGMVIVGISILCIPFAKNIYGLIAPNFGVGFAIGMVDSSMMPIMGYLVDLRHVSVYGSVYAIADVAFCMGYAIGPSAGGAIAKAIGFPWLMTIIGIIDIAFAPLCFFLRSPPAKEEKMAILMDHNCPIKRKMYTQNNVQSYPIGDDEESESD
Voltage-dependent L-type calcium channel subunit alpha-1C, sequence (Q13936 whole entry): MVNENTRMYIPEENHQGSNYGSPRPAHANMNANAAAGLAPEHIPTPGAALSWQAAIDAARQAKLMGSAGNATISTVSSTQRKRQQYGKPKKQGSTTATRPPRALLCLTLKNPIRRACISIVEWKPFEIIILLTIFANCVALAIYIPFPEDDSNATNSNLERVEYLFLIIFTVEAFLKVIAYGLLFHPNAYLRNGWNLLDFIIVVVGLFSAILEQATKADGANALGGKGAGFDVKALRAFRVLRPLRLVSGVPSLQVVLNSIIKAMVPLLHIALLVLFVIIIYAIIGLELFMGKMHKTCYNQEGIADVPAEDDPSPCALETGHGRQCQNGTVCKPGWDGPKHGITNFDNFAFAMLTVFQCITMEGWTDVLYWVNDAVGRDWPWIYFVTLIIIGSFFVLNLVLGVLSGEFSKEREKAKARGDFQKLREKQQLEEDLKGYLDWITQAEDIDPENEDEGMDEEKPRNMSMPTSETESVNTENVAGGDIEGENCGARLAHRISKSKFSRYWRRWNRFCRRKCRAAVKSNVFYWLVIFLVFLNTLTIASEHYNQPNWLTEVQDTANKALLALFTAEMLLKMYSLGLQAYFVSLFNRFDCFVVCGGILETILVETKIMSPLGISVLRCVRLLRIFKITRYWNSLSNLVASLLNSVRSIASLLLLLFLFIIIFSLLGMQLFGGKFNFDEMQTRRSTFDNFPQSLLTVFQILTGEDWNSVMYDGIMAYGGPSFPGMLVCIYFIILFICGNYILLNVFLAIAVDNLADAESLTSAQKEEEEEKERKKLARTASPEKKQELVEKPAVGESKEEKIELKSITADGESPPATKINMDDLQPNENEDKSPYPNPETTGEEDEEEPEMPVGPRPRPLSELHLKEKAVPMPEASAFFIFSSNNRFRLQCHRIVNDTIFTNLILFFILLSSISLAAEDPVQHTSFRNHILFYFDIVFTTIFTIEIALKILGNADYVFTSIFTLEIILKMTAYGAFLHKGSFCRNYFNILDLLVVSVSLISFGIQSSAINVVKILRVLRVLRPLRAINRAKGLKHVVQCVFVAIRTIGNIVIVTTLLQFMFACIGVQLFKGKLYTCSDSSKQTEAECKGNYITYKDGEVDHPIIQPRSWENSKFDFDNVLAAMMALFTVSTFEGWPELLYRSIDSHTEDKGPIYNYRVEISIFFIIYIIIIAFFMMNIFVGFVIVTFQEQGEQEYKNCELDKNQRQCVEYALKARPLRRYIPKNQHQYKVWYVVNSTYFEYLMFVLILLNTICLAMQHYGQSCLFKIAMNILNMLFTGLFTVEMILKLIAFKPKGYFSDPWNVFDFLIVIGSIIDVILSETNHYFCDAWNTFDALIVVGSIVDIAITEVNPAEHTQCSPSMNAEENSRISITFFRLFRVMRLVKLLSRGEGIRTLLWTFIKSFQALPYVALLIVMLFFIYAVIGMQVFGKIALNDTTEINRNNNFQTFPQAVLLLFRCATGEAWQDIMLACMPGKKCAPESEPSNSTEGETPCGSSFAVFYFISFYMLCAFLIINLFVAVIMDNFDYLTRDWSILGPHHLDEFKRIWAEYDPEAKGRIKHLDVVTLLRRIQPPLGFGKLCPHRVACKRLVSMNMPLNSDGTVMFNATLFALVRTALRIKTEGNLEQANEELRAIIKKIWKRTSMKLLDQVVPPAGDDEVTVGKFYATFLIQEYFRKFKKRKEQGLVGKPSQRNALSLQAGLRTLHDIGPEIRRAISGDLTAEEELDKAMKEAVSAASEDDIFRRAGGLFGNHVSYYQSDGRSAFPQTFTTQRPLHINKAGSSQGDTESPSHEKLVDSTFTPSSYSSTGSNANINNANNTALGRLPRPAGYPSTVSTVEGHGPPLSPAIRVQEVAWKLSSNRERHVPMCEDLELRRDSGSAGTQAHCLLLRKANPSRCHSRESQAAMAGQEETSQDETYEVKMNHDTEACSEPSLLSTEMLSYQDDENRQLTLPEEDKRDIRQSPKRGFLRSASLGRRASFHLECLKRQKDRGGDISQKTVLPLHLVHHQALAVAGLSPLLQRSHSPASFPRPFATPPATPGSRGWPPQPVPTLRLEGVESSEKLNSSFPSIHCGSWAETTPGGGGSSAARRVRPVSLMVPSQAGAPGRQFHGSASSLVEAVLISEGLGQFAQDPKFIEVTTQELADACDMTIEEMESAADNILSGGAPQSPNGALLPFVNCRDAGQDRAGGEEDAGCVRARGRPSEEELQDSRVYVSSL
5-hydroxytryptamine receptor 2B, sequence (P41595 whole entry): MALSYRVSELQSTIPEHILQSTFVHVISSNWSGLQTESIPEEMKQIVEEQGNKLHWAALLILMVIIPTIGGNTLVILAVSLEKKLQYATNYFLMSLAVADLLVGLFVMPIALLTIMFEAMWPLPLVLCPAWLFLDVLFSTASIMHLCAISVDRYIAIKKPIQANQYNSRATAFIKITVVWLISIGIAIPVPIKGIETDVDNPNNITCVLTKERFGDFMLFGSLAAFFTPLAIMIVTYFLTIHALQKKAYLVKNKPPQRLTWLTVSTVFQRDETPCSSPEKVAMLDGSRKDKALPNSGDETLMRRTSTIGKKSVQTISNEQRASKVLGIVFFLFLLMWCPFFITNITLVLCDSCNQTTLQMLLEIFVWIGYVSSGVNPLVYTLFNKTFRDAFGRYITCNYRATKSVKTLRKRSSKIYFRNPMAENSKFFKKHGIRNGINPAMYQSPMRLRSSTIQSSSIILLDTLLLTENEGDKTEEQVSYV

In the case of `O=C(O)c1ccc2nc(-c3cc(Cl)cc(Cl)c3)oc2c1`, the AC50 [1] was > 30 µM.
`COc1ccc(-n2nc(C(N)=O)c3c2C(=O)N(c2ccc(N4CCCCC4=O)cc2)CC3)cc1` [APIXABAN] was tested, and the AC50 (Glucocorticoid receptor) was > 30 µM.
`CC(NC(C)(C)C)C(=O)c1cccc(Cl)c1` (stereo not given) [BUPROPION] was tested, and the AC50 [2] was > 30 µM and the AC50 (Substance-K receptor) was > 10 µM.
`CCCCCCOC(=O)NC(=N)c1ccc(NCc2nc3cc(C(=O)N(CCC(=O)OCC)c4ccccn4)ccc3n2C)cc1` [DABIGATRAN ETEXILATE] was tested, and the AC50 (Glucocorticoid receptor) was > 30 µM.
`Cc1ccc(-c2ncc(Cl)cc2-c2ccc(S(C)(=O)=O)cc2)cn1` [ETORICOXIB] was tested, and the AC50 (Substance-K receptor) was > 10 µM.
In the case of `CN1C2CCCC1CC(NC(=O)c1nn(C)c3ccccc13)C2` (stereo not given) [GRANISETRON], the AC50 (Substance-K receptor) was > 10 µM.
For `N=C(N)NC(=O)Cc1c(Cl)cccc1Cl` [GUANFACINE], the AC50 (Thromboxane A2 receptor) was > 30 µM and the AC50 [3] was 1.01 µM.
`CC1Cc2ccccc2N1NC(=O)c1ccc(Cl)c(S(N)(=O)=O)c1` (stereo not given) [INDAPAMIDE] was tested, and the AC50 [4] was > 100 µM.
In the case of `CC(=O)N1CCN(c2ccc(OCC3COC(Cn4ccnc4)(c4ccc(Cl)cc4Cl)O3)cc2)CC1` (stereo not given) [KETOCONAZOLE], the AC50 [5] was > 30 µM and the AC50 [2] was 0.57 µM.
In the case of `CCN(CC)CC(=O)Nc1c(C)cccc1C` [LIDOCAINE], the AC50 (Substance-K receptor) was > 10 µM.
`CC(C)(C)NCC(O)COc1cccc2c1CC(O)C(O)C2` (stereo not given) [NADOLOL] was tested, and the AC50 [4] was > 100 µM.
With `CCCCCCCC(=O)CC[C@@H]1[C@@H](C/C=C\CCCC(=O)O)[C@@H](O)C[C@H]1O` [UNOPROSTONE] the AC50 [1] was > 50 µM.
